Patent US20260109708A1, “COMPOUNDS AND COMPOSITIONS USEFUL AS DEGRADERS OF MK2 KINASE” (Celgene Corporation, priority 2023, published 2026)

The compounds below were run against T1, p38a activated, mitogen-activated protein kinase-activated protein kinase 2 (MAPKAP-K2 or MK2) enzyme (Homo sapiens, UniProt P49137) (assay: MK2 OMNIA biochemical assay (AssayQuant continuous-read kinase assay)). Conditions: [MK-2]=0.05 nM, [ATP]=100 μM, [AQT0425]=10 μM.
T1 construct: purchased Invitrogen PV3317
T1 sequence (P49137 whole entry): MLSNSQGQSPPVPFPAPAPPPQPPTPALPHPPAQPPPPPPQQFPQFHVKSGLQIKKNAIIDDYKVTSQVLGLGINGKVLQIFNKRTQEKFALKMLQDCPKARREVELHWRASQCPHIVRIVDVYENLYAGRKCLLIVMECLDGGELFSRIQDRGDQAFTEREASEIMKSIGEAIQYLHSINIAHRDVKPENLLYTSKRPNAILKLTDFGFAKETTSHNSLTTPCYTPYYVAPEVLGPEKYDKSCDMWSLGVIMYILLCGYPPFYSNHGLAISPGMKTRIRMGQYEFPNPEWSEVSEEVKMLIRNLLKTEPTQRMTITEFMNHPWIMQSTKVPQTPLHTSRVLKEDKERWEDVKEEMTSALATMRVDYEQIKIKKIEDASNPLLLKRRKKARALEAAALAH
Source text: Example 56.2. Mitogen-Activated Protein Kinase-Activated Protein Kinase 2 AssayQuant Technologies® Assay for Compound Potency Assessment (MK2 OMNIA Biochemical Assay)
The protocol below describes a continuous-read kinase assay optimized to measure potency of compounds against p38a activated, mitogen-activated protein kinase-activated protein kinase 2 (MAPKAP-K2 or MK2) enzyme.
A 1.25× stock solution of MK2 (PV3317, from Invitrogen) and a 5× stock solution of ATP and Sox conjugated peptide substrate, AQT0425 (CSKS-AQT0425B, from AssayQuant Technologies), were prepared in 1× kinase reaction buffer consisting of 50 mM HEPES, pH 7.5, 0.01% Brij-35, 0.55 mM EGTA, 10 mM MgCl2 and 1 mM DTT.
10 μL of the ATP and substrate solution mix was added to a Coming (3574) 384-well, white, non-binding surface microtiter plate containing 0.5 μL of serially diluted test compounds prepared in DMSO. The reactions were started with the addition of 40 μL of the enzyme solution and monitored every 71 seconds for 240 min at kex 360/λem 485 in a Synergy H4 plate reader from BioTek at room temperature.
The initial linear portions of the net progress curves were fit according to a linear equation to yield the slope and percentage of inhibition (% inhibition) at each compound concentration. The net progress curves obtained during the entirety of reactions were also fit according to an ascending single-exponential equation (Eq. 1) to yield Vobs values at each compound concentration. Plots of % Inhibition versus degrader concentrations were fit according to a dose-response equation (Eq. 2) to generate IC50 and Hill slope values while plots of Vobs versus degrader concentration were fit according to Equation 3 (Eq. 3) to generate apparent Kinact values using the GraphPad PRISM software.
where F is the fluorescence intensity from the plate reader, V0 is a constant reflecting the relationship between the instrument readout and product concentration, t is time, e is Euler's number, and Vobs is the observed inactivation rate constant.
where % Inhibition is percentage of inhibition, IC50 is half maximal inhibitory concentration, [I] is the degraders concentration, and n is the Hill slope.
where kobs is the observed inactivation rate constant, Kinact is the apparent inactivation rate constant, K1 is the apparent inhibition constant, and [I] is the degrader concentration.
`C[C@@H]1CNc2c(sc3ccc4nc(-c5ccc(C(=O)N[C@H]6C[C@H](CN7CCN(c8ccc9c(C%10CCC(=O)NC%10=O)nn(C)c9c8)CC7)C6)cc5F)ccc4c23)C(=O)N1` (stereo partly drawn) [Ex 3, N-((trans)-3-((4-(3-(2,6-Dioxopiperidin-3-yl)-1-methyl-1H-indazol-6-yl)piperazin-1-yl)methyl)cyclobutyl)-3-fluoro-4-((R)-10-methyl-8-oxo-9,10,11,12-tetrahydro-8H-[1,4]diazepino[5′,6′:4,5]thieno[3,2-f]quinolin-3-yl)benzamide] showed an IC50 of under 150 nM.
`C[C@@H]1CNc2c(sc3ccc4nc(-c5ccc(C6CCN(CCN7CCN(c8ccc9c(C%10CCC(=O)NC%10=O)nn(C)c9c8)CC7)CC6)cc5)ccc4c23)C(=O)N1` (stereo partly drawn) [Ex 28, 3-(1-Methyl-6-(4-(2-(4-(4-((R)-10-methyl-8-oxo-9,10,11,12-tetrahydro-8H-[1,4]diazepino[5′,6′:4,5]thieno[3,2-f]quinolin-3-yl)phenyl)piperidin-1-yl)ethyl)piperazin-1-yl)-1H-indazol-3-yl)piperidine-2,6-dione] gave an IC50 of under 150 nM.
In the case of `C[C@@H]1CNc2c(sc3ccc4nc(-c5cccc(N6CCN(C(=O)C(=O)N7CCN(c8ccc9c(C%10CCC(=O)NC%10=O)nn(C)c9c8)CC7)CC6)c5)ccc4c23)C(=O)N1` (stereo partly drawn) [Ex 14, 3-(1-Methyl-6-(4-(2-(4-(3-((R)-10-methyl-8-oxo-9,10,11,12-tetrahydro-8H-[1,4]diazepino[5′,6′:4,5]thieno[3,2-f]quinolin-3-yl)phenyl)piperazin-1-yl)-2-oxoacetyl)piperazin-1-yl)-1H-indazol-3-yl)piperidine-2,6-dione], the IC50 is reported as under 150 nM.
Work on `C[C@@H]1CNc2c(sc3ccc4nc(-c5cccc(C6CCN(CCN7CCN(c8ccc9c(C%10CCC(=O)NC%10=O)nn(C)c9c8)CC7)CC6)c5)ccc4c23)C(=O)N1` (stereo partly drawn) [Ex 19, 3-(1-Methyl-6-(4-(2-(4-(3-((R)-10-methyl-8-oxo-9,10,11,12-tetrahydro-8H-[1,4]diazepino[5′,6′:4,5]thieno[3,2-f]quinolin-3-yl)phenyl)piperidin-1-yl)ethyl)piperazin-1-yl)-1H-indazol-3-yl)piperidine-2,6-dione] yielded an IC50 of under 150 nM.
`C[C@@H]1COc2c(sc3ccc4nc(-c5cccc(N6CCN(CCN7CCN(c8ccc9c(C%10CCC(=O)NC%10=O)nn(C)c9c8)CC7)CC6)c5)ccc4c23)C(=O)N1` (stereo partly drawn) [Ex 17, 3-(1-Methyl-6-(4-(2-(4-(3-((R)-10-methyl-8-oxo-8,9,10,11-tetrahydro-[1,4]oxazepino[7′,6′:4,5]thieno[3,2-f]quinolin-3-yl)phenyl)piperazin-1-yl)ethyl)piperazin-1-yl)-1H-indazol-3-yl)piperidine-2,6-dione] gave an IC50 of under 150 nM.
In the case of `C[C@@H]1CNc2c(sc3ccc4nc(-c5ccc(N6CCC(CCN7CCC(c8ccc(C9CCC(=O)NC9=O)cc8)CC7)CC6)cc5)ccc4c23)C(=O)N1` (stereo partly drawn) [Ex 40, 3-(4-(1-(2-(1-(4-((R)-10-Methyl-8-oxo-9,10,11,12-tetrahydro-8H-[1,4]diazepino[5′,6′:4,5]thieno[3,2-f]quinolin-3-yl)phenyl)piperidin-4-yl)ethyl)piperidin-4-yl)phenyl)piperidine-2,6-dione], the IC50 is reported as 151 to 500 nM.
`C[C@@H]1CNc2c(sc3ccc4nc(-c5ccc(C6CCN(CCN7CCN(c8ccc(C9CCC(=O)NC9=O)cc8)CC7)CC6)nc5)ccc4c23)C(=O)N1` (stereo partly drawn) [Ex 34, 3-(4-(4-(2-(4-(5-((R)-10-Methyl-8-oxo-9,10,11,12-tetrahydro-8H-[1,4]diazepino[5′,6′:4,5]thieno[3,2-f]quinolin-3-yl)pyridin-2-yl)piperidin-1-yl)ethyl)piperazin-1-yl)phenyl)piperidine-2,6-dione] showed an IC50 of 151 to 500 nM.
`C[C@@H]1CNc2c(sc3ccc4nc(-n5cc(C6CCN(CCN7CCN(c8ccc(C9CCC(=O)NC9=O)cc8)CC7)CC6)nn5)ccc4c23)C(=O)N1` (stereo partly drawn) [Ex 45, 3-(4-(4-(2-(4-(1-((R)-10-Methyl-8-oxo-9,10,11,12-tetrahydro-8H-[1,4]diazepino[5′,6′:4,5]thieno[3,2-f]quinolin-3-yl)-1H-1,2,3-triazol-4-yl)piperidin-1-yl)ethyl)piperazin-1-yl)phenyl)piperidine-2,6-dione] gave an IC50 of under 150 nM.
`C[C@@H]1CNc2c(sc3ccc4nc(-c5ccc(C(=O)N[C@H]6CC[C@H](CCN7CCN(c8ccc9c(C%10CCC(=O)NC%10=O)nn(C)c9c8)CC7)CC6)cc5F)ccc4c23)C(=O)N1` (stereo partly drawn) [Ex 6, N-(trans-4-(2-(4-(3-(2,6-Dioxopiperidin-3-yl)-1-methyl-1H-indazol-6-yl)piperazin-1-yl)ethyl)cyclohexyl)-3-fluoro-4-((R)-10-methyl-8-oxo-9,10,11,12-tetrahydro-8H-[1,4]diazepino[5′,6′:4,5]thieno[3,2-f]quinolin-3-yl)benzamide] gave an IC50 of under 150 nM.
Work on `C[C@@H]1CNc2c(sc3ccc4nc(-c5ccc(C(=O)NCCN6CCN(c7ccc8c(C9CCC(=O)NC9=O)nn(C)c8c7)CC6)cc5F)ccc4c23)C(=O)N1` (stereo partly drawn) [Ex 2, N-(2-(4-(3-(2,6-dioxopiperidin-3-yl)-1-methyl-1H-indazol-6-yl)piperazin-1-yl)ethyl)-3-fluoro-4-((R)-10-methyl-8-oxo-9,10,11,12-tetrahydro-8H-[1,4]diazepino[5′,6′:4,5]thieno[3,2-f]quinolin-3-yl)benzamide] yielded an IC50 of under 150 nM.
`C[C@@H]1CNc2c(sc3ccc4nc(-c5ccc(C(=O)N[C@H]6C[C@H](CCN7CCN(c8ccc9c(C%10CCC(=O)NC%10=O)nn(C)c9c8)CC7)C6)cc5F)ccc4c23)C(=O)N1` (stereo partly drawn) [Ex 4, N-(trans-3-(2-(4-(3-(2,6-Dioxopiperidin-3-yl)-1-methyl-1H-indazol-6-yl)piperazin-1-yl)ethyl)cyclobutyl)-3-fluoro-4-((R)-10-methyl-8-oxo-9,10,11,12-tetrahydro-8H-[1,4]diazepino[5′,6′:4,5]thieno[3,2-f]quinolin-3-yl)benzamide] was tested, and the IC50 was under 150 nM.
`C[C@@H]1CNc2c(sc3ccc4nc(-c5cn(C6CCN(CCN7CCN(c8ccc9c(C%10CCC(=O)NC%10=O)nn(C)c9c8)CC7)CC6)nn5)ccc4c23)C(=O)N1` (stereo partly drawn) [Ex 50, 3-(1-Methyl-6-(4-(2-(4-(4-((R)-10-methyl-8-oxo-9,10,11,12-tetrahydro-8H-[1,4]diazepino[5′,6′:4,5]thieno[3,2-f]quinolin-3-yl)-1H-1,2,3-triazol-1-yl)piperidin-1-yl)ethyl)piperazin-1-yl)-1H-indazol-3-yl)piperidine-2,6-dione] was tested, and the IC50 was under 150 nM.
In the case of `C[C@@H]1CNc2c(sc3ccc4nc(-c5ccc(N6CC7CC(C6)N7CCN6CCN(c7ccc(C8CCC(=O)NC8=O)cc7)CC6)cc5)ccc4c23)C(=O)N1` (stereo partly drawn) [Ex 24, 3-(4-(4-(2-(3-(4-((R)-10-Methyl-8-oxo-9,10,11,12-tetrahydro-8H-[1,4]diazepino[5′,6′:4,5]thieno[3,2-f]quinolin-3-yl)phenyl)-3,6-diazabicyclo[3.1.1]heptan-6-yl)ethyl)piperazin-1-yl)phenyl)piperidine-2,6-dione], the IC50 is reported as under 150 nM.
`C[C@@H]1CNc2c(sc3ccc4nc(-c5cn(C6CCN(CCN7CCC(c8ccc(C9CCC(=O)NC9=O)cc8)CC7)CC6)nn5)ccc4c23)C(=O)N1` (stereo partly drawn) [Ex 48, 3-(4-(1-(2-(4-(4-((R)-10-Methyl-8-oxo-9,10,11,12-tetrahydro-8H-[1,4]diazepino[5′,6′:4,5]thieno[3,2-f]quinolin-3-yl)-1H-1,2,3-triazol-1-yl)piperidin-1-yl)ethyl)piperidin-4-yl)phenyl)piperidine-2,6-dione] was tested, and the IC50 was under 150 nM.
`C[C@@H]1COc2c(sc3ccc4nc(C#CC5CCN(C(=O)C(=O)N6CCN(c7ccc(C8CCC(=O)NC8=O)cc7)CC6)CC5)ccc4c23)C(=O)N1` (stereo partly drawn) [Ex 55, 3-(4-(4-(2-(4-(((R)-10-Methyl-8-oxo-8,9,10,11-tetrahydro-[1,4]oxazepino[7′,6′:4,5]thieno[3,2-f]quinolin-3-yl)ethynyl)piperidin-1-yl)-2-oxoacetyl)piperazin-1-yl)phenyl)piperidine-2,6-dione] gave an IC50 of 501 to 1000 nM.
Compound `C[C@@H]1CNc2c(sc3ccc4nc(-c5cccc(N6CCN(CCN7CCN(c8ccc9c(C%10CCC(=O)NC%10=O)nn(C)c9c8)CC7)CC6)c5)ccc4c23)C(=O)N1` (stereo partly drawn) [Ex 12, 3-(1-Methyl-6-(4-(2-(4-(3-((R)-10-methyl-8-oxo-9,10,11,12-tetrahydro-8H-[1,4]diazepino[5′,6′:4,5]thieno[3,2-f]quinolin-3-yl)phenyl)piperazin-1-yl)ethyl)piperazin-1-yl)-1H-indazol-3-yl)piperidine-2,6-dione] has an IC50 of under 150 nM.
In the case of `C[C@@H]1CNc2c(sc3ccc4nc(-c5cnn(C6CCN(CCN7CCN(c8ccc9c(C%10CCC(=O)NC%10=O)nn(C)c9c8)CC7)CC6)c5)ccc4c23)C(=O)N1` (stereo partly drawn) [Ex 44, 3-(1-Methyl-6-(4-(2-(4-(4-((R)-10-methyl-8-oxo-9,10,11,12-tetrahydro-8H-[1,4]diazepino[5′,6′:4,5]thieno[3,2-f]quinolin-3-yl)-1H-pyrazol-1-yl)piperidin-1-yl)ethyl)piperazin-1-yl)-1H-indazol-3-yl)piperidine-2,6-dione], the IC50 is reported as under 150 nM.
